# Target: T1, Ara1 (Saccharomyces cerevisiae, UniProt P38115)
# T1 construct: Ni-NTA and Superdex 200; tag cleavage not mentioned; homodimer
# Assay: X-ray crystallography of co-crystal, […] A
# Conditions: co-crystallised with 5 mM NADPH, pH 6.5, 0.05 M CaCl2, 289 K; cofactor-binding site
structure (smiles),measurement,value
NC(=O)C1=CN([C@@H]2O[C@H](COP(=O)(O)OP(=O)(O)OC[C@H]3O[C@@H](n4cnc5c(N)ncnc54)[C@H](OP(=O)(O)O)[C@@H]3O)[C@@H](O)[C@H]2O)C=CC1 [NADPH],"X-ray crystallography of co-crystal, 2.00 A",The structure of the Ara1–NADPH complex showed that a molecule of NADPH binds

# Reference: paper PMC3818031 (Acta Crystallographica Section F: Structural Biology and …, 2013)
